The text below walks through data of patent publication US20240246946A1, “MODULATORS OF TREX1” (Constellation Pharmaceuticals, Inc., priority 2021, published 2024).

Molecules are shown by their SMILES. Where only a bound is given, the exact number is not on record here.

The target of one test is T1, full length human TREX1 (Homo sapiens, UniProt Q9NSU2).
T1 construct: N-terminally His-Tev tagged full length human TREX1; made in house; host or cells: E. coli
T1 sequence (Q9NSU2 1-314): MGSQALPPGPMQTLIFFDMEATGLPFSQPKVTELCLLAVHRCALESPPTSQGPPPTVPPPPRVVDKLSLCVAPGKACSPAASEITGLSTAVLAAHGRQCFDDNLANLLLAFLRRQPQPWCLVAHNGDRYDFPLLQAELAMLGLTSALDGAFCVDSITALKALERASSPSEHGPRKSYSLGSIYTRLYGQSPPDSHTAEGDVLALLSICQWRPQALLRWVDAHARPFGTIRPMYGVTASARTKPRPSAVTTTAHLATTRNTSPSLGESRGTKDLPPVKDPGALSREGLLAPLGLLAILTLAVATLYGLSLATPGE
The test is described as follows: hTREX1 Biochemical Assay (fluorescence, dsDNA substrate degradation). Particulars: biochemical, read-out: hTREX1 IC50. The method in brief: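 Cleavage of 60 nM TEX615/quencher-labelled dsDNA in pH 7.4 Tris buffer with 5 mM MgCl2, 1.0% DMSO, run 18 hours at 25° C, EDTA-quenched; fluorescence read-out.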

A further test has as its target T2, full length mouse TREX1 (Mus musculus, UniProt Q91XB0).
T2 construct: N-terminally His-Tev tagged full length mouse TREX1; made in house; host or cells: E. coli
T2 sequence (Q91XB0 1-314): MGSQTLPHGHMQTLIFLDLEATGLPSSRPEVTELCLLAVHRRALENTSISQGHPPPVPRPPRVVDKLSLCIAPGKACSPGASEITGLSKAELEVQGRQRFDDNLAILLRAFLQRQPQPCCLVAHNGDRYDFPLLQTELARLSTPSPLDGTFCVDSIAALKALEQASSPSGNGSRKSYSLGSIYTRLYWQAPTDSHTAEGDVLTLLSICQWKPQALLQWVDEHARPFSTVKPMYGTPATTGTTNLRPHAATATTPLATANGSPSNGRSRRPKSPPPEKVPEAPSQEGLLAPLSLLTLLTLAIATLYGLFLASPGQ
The test is described as follows: mTREX1 Biochemical Assay (fluorescence, dsDNA substrate degradation). The following applies: biochemical, read-out: mTREX1 IC50. The essentials:
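Reaction run 18 h at 25° C. with 60 nM TEX615/quencher-labelled dsDNA and 6 pM mouse TREX1 in Tris buffer (pH 7.4, 5 mM MgCl2, 1.0% DMSO), enzyme having sat 4 h with compound across 10 concentrations. EDTA quench; substrate degradation measured as fluorescence increase.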

A word on the IC50: it is the concentration at which inhibition is half-maximal. On to `CC(c1nc(C(=O)Nc2cnoc2)c(O)c(=O)n1C)C(c1ccccc1C#N)c1c(C#N)cnn1C` (single isomer, unassigned) [Example 52 D2E2], for which the IC50 on full length human TREX1 and on full length mouse TREX1 was over 10 nM in each case.

On to `Cc1cnc(C(c2ccccc2Cl)C(C)c2nc(C(=O)Nc3cnoc3)c(O)c(=O)n2C)cn1` (single isomer, unassigned) [Example 116 D2E2], for which the IC50 at full length human TREX1 and at full length mouse TREX1 was over 10 nM in each case.

On to `Cc1cnc(C)c(C(c2cc(F)ccc2Cl)C(C)c2nc(C(=O)Nc3cnoc3)c(O)c(=O)n2C)n1` (single isomer, unassigned) [Example 121 D2E2], for which the IC50 at full length human TREX1 and at full length mouse TREX1 was over 10 nM in each case.

Turning to `CC(c1nc(C(=O)Nc2cnoc2)c(O)c(=O)n1C)C(c1cnn(C)c1)c1c(C#N)cccc1C#N` (single isomer, unassigned) [Example 19 D2E1], the IC50 at full length human TREX1 and on full length mouse TREX1 was over 10 nM throughout.

`CC(c1nc(C(=O)Nc2cnoc2)c(O)c(=O)n1C)C(c1cn(C)cn1)c1ccccc1C#N` (single isomer, unassigned) [Example 39 D1E2]: the half-inhibitory concentration (IC50) at full length human TREX1 and on full length mouse TREX1 was over 10 nM throughout.

In the case of `COCCn1cc(C(c2cc(F)c(F)cc2Cl)C(C)c2nc(C(=O)Nc3cnoc3)c(O)c(=O)n2C)cn1` (single isomer, unassigned) [Example 73 D1E2], the IC50 at full length human TREX1 and at full length mouse TREX1 was over 10 nM throughout.

On to `Cc1cnc(C)c(C(c2ccccc2Cl)C(C)c2nc(C(=O)Nc3cnoc3)c(O)c(=O)n2C)n1` (single isomer, unassigned) [Example 120 D2E1], for which the IC50 on full length human TREX1 and at full length mouse TREX1 was over 10 nM each time.

As for `CC(c1nc(C(=O)Nc2cnoc2)c(O)c(=O)n1C)C(c1cnn(C)c1)c1ccc(Cl)cc1C#N` (single isomer, unassigned) [Example 27 D2E2], the IC50 at full length human TREX1 and on full length mouse TREX1 was over 10 nM each time.

Consider `COCCCn1cc(C(c2ccccc2C#N)C(C)c2nc(C(=O)Nc3cnoc3)c(O)c(=O)n2C)cn1` (single isomer, unassigned) [Example 24 D2E1], for which the IC50 on full length human TREX1 and on full length mouse TREX1 was over 10 nM each time.

On to `CC(c1nc(C(=O)Nc2cnoc2)c(O)c(=O)n1C)C(c1cnn(C)c1)c1cc(C(F)(F)F)ccc1C#N` (single isomer, unassigned) [Example 29 D2E2], for which the IC50 on full length human TREX1 and at full length mouse TREX1 was over 10 nM in each case.

Regarding `Cc1nn(C)c(C)c1C(c1ccccc1C#N)C(C)c1nc(C(=O)Nc2cnoc2)c(O)c(=O)n1C` (single isomer, unassigned) [Example 78 D2E2], the IC50 on full length human TREX1 and on full length mouse TREX1 was over 10 nM each time.

`CC(c1nc(C(=O)Nc2cnoc2)c(O)c(=O)n1C)C(c1cnn(C)c1)c1cc(F)c(F)cc1Cl` (single isomer, unassigned) [Example 28 D1E2]: the 50% inhibitory concentration (IC50) on full length human TREX1 and on full length mouse TREX1 was over 10 nM in each case.

Consider `Cc1ccc(C(c2ccccc2C#N)C(C)c2nc(C(=O)Nc3cnoc3)c(O)c(=O)n2C)cn1` (single isomer, unassigned) [Example 5 D1E1], for which the IC50 on full length human TREX1 and on full length mouse TREX1 was over 10 nM each time.

As to `CC(c1nc(C(=O)Nc2cnoc2)c(O)c(=O)n1C)C(c1cnn(C)c1)c1c(C#N)cccc1C#N` (single isomer, unassigned) [Example 19 D2E2], the IC50 on full length human TREX1 and at full length mouse TREX1 was over 10 nM throughout.

Regarding `Cc1cnc(C(c2cc(F)ccc2C#N)C(C)c2nc(C(=O)Nc3cnoc3)c(O)c(=O)n2C)cn1` (single isomer, unassigned) [Example 115 D2E1], the IC50 at full length human TREX1 and on full length mouse TREX1 was over 10 nM throughout.

Take `CC(c1nc(C(=O)Nc2cnoc2)c(O)c(=O)n1C)C(c1ccccc1C#N)c1ccnn1C` (single isomer, unassigned) [Example 1 D2E1]: the IC50 on full length human TREX1 and at full length mouse TREX1 was over 10 nM throughout.

For `CC(c1nc(C(=O)Nc2cnoc2)c(O)c(=O)n1C)C(c1cnn(CC2CC2)c1)c1ccccc1C#N` (single isomer, unassigned) [Example 23 D1E1], the IC50 on full length human TREX1 and on full length mouse TREX1 was over 10 nM each time.

Regarding `CC(c1nc(C(=O)Nc2cnoc2)c(O)c(=O)n1C)C(c1cnccn1)c1ccccc1C#N` (single isomer, unassigned) [Example 66 D2E1], the values for the IC50 on full length human TREX1 and on full length mouse TREX1 were 1 to 10 nM and over 10 nM, respectively.

As to `CC(c1nc(C(=O)Nc2cnoc2)c(O)c(=O)n1C)C(c1cnn(C)c1)c1cc(C(F)(F)F)ccc1C#N` (single isomer, unassigned) [Example 29 D2E1], the IC50 at full length human TREX1 and at full length mouse TREX1 was over 10 nM in each case.

As to `CC(c1nc(C(=O)Nc2cnoc2)c(O)c(=O)n1C)C(c1cnn(CCN2CCN(C(=O)OC(C)(C)C)CC2)c1)c1ccccc1C#N` (single isomer, unassigned) [Example 21 D1E2], the IC50 at full length human TREX1 and on full length mouse TREX1 was over 10 nM in each case.

Take `CCn1cc(C(c2cc(F)c(F)cc2Cl)C(C)c2nc(C(=O)Nc3cnoc3)c(O)c(=O)n2C)cn1` (single isomer, unassigned) [Example 72 D1E2]: the IC50 at full length human TREX1 and at full length mouse TREX1 was over 10 nM each time.

Consider `Cc1nn(C)cc1C(c1cc(F)ccc1Cl)C(C)c1nc(C(=O)Nc2cnoc2)c(O)c(=O)n1C` (single isomer, unassigned) [Example 62 D1E1], for which the IC50 on full length human TREX1 and on full length mouse TREX1 was over 10 nM each time.

`CC(c1nc(C(=O)Nc2cnoc2)c(O)c(=O)n1C)C(c1cnn(CCN2CCNCC2)c1)c1ccccc1C#N` (single isomer, unassigned) [Example 31 D1E2]: the IC50 on full length human TREX1 and at full length mouse TREX1 was over 10 nM throughout.

`CC(c1nc(C(=O)Nc2cnoc2)c(O)c(=O)n1C)C(c1cnn(C)c1)c1ccc(Cl)cc1C#N` (single isomer, unassigned) [Example 27 D2E1]: the IC50 at full length human TREX1 and at full length mouse TREX1 was over 10 nM in each case.

Regarding `CC(c1nc(C(=O)Nc2cnoc2)c(O)c(=O)n1C)C(c1cnn(C)c1)c1cc(F)ccc1Cl` (single isomer, unassigned) [Example 61 D2E1], the concentration for half-maximal inhibition (IC50) on full length human TREX1 and at full length mouse TREX1 was over 10 nM in each case.

For the compound `CC(c1nc(C(=O)Nc2cnoc2)c(O)c(=O)n1C)C(c1cnn(CC(F)(F)F)c1)c1ccccc1C#N` (single isomer, unassigned) [Example 22 D2E2], the IC50 on full length human TREX1 and at full length mouse TREX1 was over 10 nM each time.

For the compound `Cc1ccn(C(c2ccccc2Cl)C(C)c2nc(C(=O)Nc3cnoc3)c(O)c(=O)n2C)n1` (single isomer, unassigned) [Example 49 D1E1], the IC50 on full length human TREX1 and at full length mouse TREX1 was 1 to 10 nM in each case.

For the compound `CC(c1nc(C(=O)Nc2cnoc2)c(O)c(=O)n1C)C(c1cnn(C)c1)c1ccc(C(F)(F)F)cc1C#N` (single isomer, unassigned) [Example 30 D1E2], the IC50 at full length human TREX1 and at full length mouse TREX1 was over 10 nM each time.

As for `CCn1cc(C(c2cc(F)ccc2C#N)C(C)c2nc(C(=O)Nc3cnoc3)c(O)c(=O)n2C)cn1` (single isomer, unassigned) [Example 17 D2E2], the IC50 at full length human TREX1 and at full length mouse TREX1 was over 10 nM each time.

Take `CC(c1nc(C(=O)Nc2cnoc2)c(O)c(=O)n1C)C(c1ccccc1C#N)c1nnnn1C` (single isomer, unassigned) [Example 131 D2E2]: the concentration for half-maximal inhibition (IC50) at full length human TREX1 and on full length mouse TREX1 was over 10 nM throughout.

`Cc1ccn(C(c2ccccc2Cl)C(C)c2nc(C(=O)Nc3cnoc3)c(O)c(=O)n2C)n1` (single isomer, unassigned) [Example 49 D1E2]: the IC50 at full length human TREX1 and on full length mouse TREX1 was over 10 nM throughout.

Consider `Cc1ncc(C(c2ccccc2Cl)C(C)c2nc(C(=O)Nc3cnoc3)c(O)c(=O)n2C)nc1C` (single isomer, unassigned) [Example 125 D2E2], for which the IC50 on full length human TREX1 and on full length mouse TREX1 was over 10 nM in each case.

As for `CC(c1nc(C(=O)Nc2cnoc2)c(O)c(=O)n1C)C(c1cnn(CCN2CCOCC2)c1)c1ccccc1C#N` (single isomer, unassigned) [Example 20 D1E2], the IC50 on full length human TREX1 and at full length mouse TREX1 was over 10 nM throughout.

`CC(c1nc(C(=O)Nc2cnoc2)c(O)c(=O)n1C)C(c1cnn(CCN2CCNCC2)c1)c1ccccc1C#N` (single isomer, unassigned) [Example 31 D2E2]: the IC50 on full length human TREX1 and at full length mouse TREX1 was over 10 nM throughout.

Take `CC(c1nc(C(=O)Nc2cnoc2)c(O)c(=O)n1C)C(c1cnn(C)c1)c1cc(F)c(F)cc1C#N` (single isomer, unassigned) [Example 25 D2E1]: the IC50 at full length human TREX1 and on full length mouse TREX1 was over 10 nM each time.

On to `CC(c1nc(C(=O)Nc2cnoc2)c(O)c(=O)n1C)C(c1cnn(CCN2CCN(C)CC2)c1)c1ccccc1C#N` (single isomer, unassigned) [Example 32 D2E2], for which the IC50 on full length human TREX1 and on full length mouse TREX1 was over 10 nM throughout.
